Values of other authors in patent US7175830B2, “Imaging of drug accumulation as a guide to antitumor therapy” (The United States of America as represented by the …, priority 1999, dated 2007).

Conditions: circulates in the body; higher than SN-38, the active form

## CCc1c2c(nc3ccc(OC(=O)N4CCC(N5CCCCC5)CC4)cc13)-c1cc3c(c(=O)n1C2)COC(=O)[C@]3(O)CC [Irinotecan]
  circulating concentration relative to that of its metabolite SN-38: about 100 fold
